Like-named read-outs stand apart in the source and are kept apart here.
Columns and labels:
HCV genotype 1b replicon = test: HCV replicon assay, genotype 1b replicon EC50; type: cell-based, Hepatitis C virus; details: read-out: EC50 [gt-1b]
In short: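 Potency comes from a four-parameter fit of signal as percent of DMSO control. Replicon-bearing cells were treated 24-48 hours with a compound dilution series in absence of G418, and replicon RNA was quantified normalized to cyclophilin A RNA, or luciferase read.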

[1] = molecular target: HCV NS3/4A protease genotype 1b (Hepatitis C virus genotype 1b, UniProt P26663); test: HCV NS3/4A protease time-resolved fluorescence (TRF) assay, Ki against genotype 1b; type: biochemical
HCV NS3/4A protease genotype 1b, sequence (P26663 1027-1657): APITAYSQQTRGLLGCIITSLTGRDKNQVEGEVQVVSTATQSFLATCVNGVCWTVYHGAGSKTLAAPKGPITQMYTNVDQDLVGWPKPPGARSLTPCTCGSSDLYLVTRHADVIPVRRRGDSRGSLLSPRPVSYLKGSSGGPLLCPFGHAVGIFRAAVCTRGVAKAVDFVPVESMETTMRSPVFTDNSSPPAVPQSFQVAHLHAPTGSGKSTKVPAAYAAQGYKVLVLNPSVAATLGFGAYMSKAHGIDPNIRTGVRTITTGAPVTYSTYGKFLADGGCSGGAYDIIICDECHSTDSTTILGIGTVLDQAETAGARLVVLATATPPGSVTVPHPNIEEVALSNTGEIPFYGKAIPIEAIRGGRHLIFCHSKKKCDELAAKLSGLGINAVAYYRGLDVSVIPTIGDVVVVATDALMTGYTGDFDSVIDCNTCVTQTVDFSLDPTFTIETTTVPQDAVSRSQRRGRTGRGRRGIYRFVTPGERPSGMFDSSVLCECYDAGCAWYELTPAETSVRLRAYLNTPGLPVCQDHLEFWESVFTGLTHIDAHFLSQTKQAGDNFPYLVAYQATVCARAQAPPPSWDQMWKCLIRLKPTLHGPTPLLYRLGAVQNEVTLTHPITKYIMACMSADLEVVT
HCV NS3/4A protease genotype 1b, sequence (P26663 1658-1711): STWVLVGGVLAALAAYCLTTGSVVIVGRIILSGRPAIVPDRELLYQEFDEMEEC
In short: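 Ki values come from IC50 fits corrected for substrate concentration and KM. The time-resolved fluorescence protease reaction used 25 nM peptide substrate, 2.5 h, room temperature, pH 7.5 HEPES buffer, after 30 min enzyme–inhibitor preincubation.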

[2] = Hepatitis C virus, HCV replicon, genotype 1b
[3] = IC50 [gt-1b], NS3/4A protease TRF assay, genotype 1b enzyme 0.2 nM
[4] = Hepatitis C virus, genotype 1b replicon, K+ salt
[5] = IC50 [gt-1b] (nM), NS3/4A genotype 1b, enzyme 0.2 nM, K+ salt
[6] = Hepatitis C virus, genotype 1b replicon
[7] = IC50 [gt-1b] (nM), NS3/4A genotype 1b, enzyme 0.2 nM

| Compound | EC50 (HCV genotype 1b replicon; [6]) | IC50 [1, 7] | also measured |
| --- | --- | --- | --- |
| CCc1nc2ccc(OC)cc2c2c1O[C@]1(CC2)C[C@H]2C(=O)N[C@]3(C(=O)NS(=O)(=O)C4(C)CC4)C[C@H]3/C=C\CCCCC[C@H](NC(=O)O[C@@H](C)C(C)C)C(=O)N2C1 [Example 434, (2S)-3-methylbutan-2-yl [(2R,6S,12Z,13aS,14aR,16aS)-5′-ethyl-9′-methoxy-14a-{[(1-methylcyclopropyl)sulfonyl]carbamoyl}-5,16-dioxo-1,1′,2′,5,6,7,8,9,10,11,13a,14,14a,15,16,16a-hexadecahydrospiro[cyclopropa[e]pyrrolo[1,2-a][1,4]diazacyclopentadecine-2,3′-pyrano[2,3-c]quinolin]-6-yl]carbamate] | – | – | EC50 (HCV genotype 1b replicon; [2]): 1.78 nM; IC50 [1, 3]: 0.012 nM |
| Cc1nc2cc(F)c(F)cc2c2c1O[C@]1(CC2)C[C@H]2C(=O)N[C@]3(C(=O)NS(=O)(=O)C4(C)CC4)C[C@H]3/C=C\CCCCC[C@H](NC(=O)OCC(C)C)C(=O)N2C1 [Example 201, 2-methylpropyl [(2R,6S,12Z,13aS,14aR,16aS)-8′,9′-difluoro-5′-methyl-14a-{[(1-methylcyclopropyl)sulfonyl]carbamoyl}-5,16-dioxo-1,1′,2′,5,6,7,8,9,10,11,13a,14,14a,15,16,16a-hexadecahydrospiro[cyclopropa[e]pyrrolo[1,2-a][1,4]diazacyclopentadecine-2,3′-pyrano[2,3-c]quinolin]-6-yl]carbamate] | – | – | EC50 (HCV genotype 1b replicon; [4]): 0.91 nM; IC50 [1, 5]: 0.007 nM |
| COc1ccc2nc(C(C)C)c3c(c2c1)C(F)(F)C[C@]1(C[C@H]2C(=O)N[C@]4(C(=O)NS(=O)(=O)C5(C)CC5)C[C@H]4/C=C\CCCCC[C@H](NC(=O)OCC(C)C)C(=O)N2C1)O3 [Example 211, 2-methylpropyl [(2S,6S,12Z,13aS,14aR,16aS)-1′,1′-difluoro-9′-methoxy-14a-{[(1-methylcyclopropyl)sulfonyl]carbamoyl}-5,16-dioxo-5′-(propan-2-yl)-1,1′,2′,5,6,7,8,9,10,11,13a,14,14a,15,16,16a-hexadecahydrospiro[cyclopropa[e]pyrrolo[1,2-a][1,4]diazacyclopentadecine-2,3′-pyrano[2,3-c]quinolin]-6-yl]carbamate] | 3.54 nM | 0.006 nM | – |
| Cc1nc2ccccc2c2c1O[C@]1(CC2)C[C@H]2C(=O)N[C@]3(C(=O)NS(=O)(=O)C4(C)CC4)C[C@H]3/C=C\CCCCC[C@H](Nc3nc4ccccc4o3)C(=O)N2C1 [Example 379, (2R,6S,12Z,13aS,14aR,16aS)-6-(1,3-benzoxazol-2-ylamino)-5′-methyl-N-[(1-methylcyclopropyl)sulfonyl]-5,16-dioxo-1,1′,2′,6,7,8,9,10,11,13a,14,15,16,16a-tetradecahydrospiro[cyclopropa[e]pyrrolo[1,2-a][1,4]diazacyclopentadecine-2,3′-pyrano[2,3-c]quinoline]-14a(5H)-carboxamide] | – | – | EC50 (HCV genotype 1b replicon; [2]): 1.36 nM; IC50 [1, 3]: 0.104 nM |
| Cc1nc2ccccc2c2c1O[C@]1(CC2)C[C@H]2C(=O)N[C@]3(C(=O)NS(=O)(=O)C4(C)CC4)C[C@H]3/C=C\CCCCC[C@H](NC(=O)OC3(C(C)C)CC3)C(=O)N2C1 [Example 116, 1-(propan-2-yl)cyclopropyl [(2R,6S,12Z,13aS,14aR,16aS)-5′-methyl-14a-{[(1-methylcyclopropyl)sulfonyl]carbamoyl}-5,16-dioxo-1,1′,2′,5,6,7,8,9,10,11,13a,14,14a,15,16,16a-hexadecahydrospiro[cyclopropa[e]pyrrolo[1,2-a][1,4]diazacyclopentadecine-2,3′-pyrano[2,3-c]quinolin]-6-yl]carbamate] | 0.312 nM | 0.008 nM | – |
| COc1ccc2nc(C(C)C)c3c(c2c1)CC[C@]1(C[C@H]2C(=O)N[C@]4(C(=O)NS(=O)(=O)C5(C)CC5)C[C@H]4/C=C\CCCCC[C@H](NC(=O)OC(C)(C)C)C(=O)N2C1)O3 [Example 2, tert-Butyl (2R,6S,13aS,14aR,16aS,Z)-5′-isopropyl-9′-methoxy-14a-(1-methylcyclopropylsulfonylcarbamoyl)-5,16-dioxo-1′,2′,3,5,6,7,8,9,10,11,13a,14,14a,15,16,16a-hexadecahydro-1H-spiro[cyclopropa[e]pyrrolo[1,2-a][1,4]diazacyclopentadecine-2,3′-pyrano[2,3-c]quinoline]-6-ylcarbamate] | 1.19 nM | 0.012 nM | – |
| Cc1nc2ccccc2c2c1O[C@]1(CC2)C[C@H]2C(=O)N[C@]3(C(=O)NS(=O)(=O)C4(C)CC4)C[C@H]3/C=C\CCCCC[C@H](NC(=O)OC3CC(F)(F)C3(F)F)C(=O)N2C1 (stereo partly drawn) [Example 321, 2,2,3,3-tetrafluorocyclobutyl [(2R,6S,12Z,13aS,14aR,16aS)-5′-methyl-14a-{[(1-methylcyclopropyl)sulfonyl]carbamoyl}-5,16-dioxo-1,1′,2′,5,6,7,8,9,10,11,13a,14,14a,15,16,16a-hexadecahydrospiro[cyclopropa[e]pyrrolo[1,2-a][1,4]diazacyclopentadecine-2,3′-pyrano[2,3-c]quinolin]-6-yl]carbamate] | – | 0.03 nM | EC50 (HCV genotype 1b replicon; genotype 1b replicon): 7.16 nM |
| COc1ccc2nc(C)c3c(c2c1)CC[C@]1(C[C@H]2C(=O)N[C@]4(C(=O)NS(=O)(=O)C5(C)CC5)C[C@H]4/C=C\CCCCC[C@H](NC(=O)OC4CCCCC4)C(=O)N2C1)O3 [Example 206, cyclohexyl [(2R,6S,12Z,13aS,14aR,16aS)-9′-methoxy-5′-methyl-14a-{[(1-methylcyclopropyl)sulfonyl]carbamoyl}-5,16-dioxo-1,1′,2′,5,6,7,8,9,10,11,13a,14,14a,15,16,16a-hexadecahydrospiro[cyclopropa[e]pyrrolo[1,2-a][1,4]diazacyclopentadecine-2,3′-pyrano[2,3-c]quinolin]-6-yl]carbamate] | – | – | EC50 (HCV genotype 1b replicon; [4]): 0.808 nM; IC50 [1, 5]: 0.005 nM |
| COCCC(C)(C)OC(=O)N[C@H]1CCCCC/C=C\[C@@H]2C[C@@]2(C(=O)NS(=O)(=O)C2(C)CC2)NC(=O)[C@@H]2C[C@@]3(CN2C1=O)CC(F)(F)c1c(c(C(C)C)nc2ccc(OC)cc12)O3 [Example 244, 4-methoxy-2-methylbutan-2-yl [(2S,6S,12Z,13aS,14aR,16aS)-1′,1′-difluoro-9′-methoxy-14a-{[(1-methylcyclopropyl)sulfonyl]carbamoyl}-5,16-dioxo-5′-(propan-2-yl)-1,1′,2′,5,6,7,8,9,10,11,13a,14,14a,15,16,16a-hexadecahydrospiro[cyclopropa[e]pyrrolo[1,2-a][1,4]diazacyclopentadecine-2,3′-pyrano[2,3-c]quinolin]-6-yl]carbamate] | 2.89 nM | 0.008 nM | – |
| Cc1nc2ccccc2c2c1O[C@]1(CC2)C[C@H]2C(=O)N[C@]3(C(=O)NS(=O)(=O)C4(C)CC4)C[C@H]3/C=C\CCCCC[C@H](NC(=O)NC3CCCCC3)C(=O)N2C1 [Example 285, (2R,6S,12Z,13aS,14aR,16aS)-6-[(cyclohexylcarbamoyl)amino]-5′-methyl-N-[(1-methylcyclopropyl)sulfonyl]-5,16-dioxo-1,1′,2′,6,7,8,9,10,11,13a,14,15,16,16a-tetradecahydrospiro[cyclopropa[e]pyrrolo[1,2-a][1,4]diazacyclopentadecine-2,3′-pyrano[2,3-c]quinoline]-14a(5H)-carboxamide] | – | – | EC50 (HCV genotype 1b replicon; Hepatitis C virus, genotype 1b replicon, HCOOH salt): 10.3 nM; IC50 ([1]; IC50 [gt-1b] (nM), NS3/4A genotype 1b, enzyme 0.2 nM, HCOOH salt): 0.002 nM |
| Cc1nc2cc(F)c(F)cc2c2c1O[C@]1(CC2)C[C@H]2C(=O)N[C@]3(C(=O)NS(=O)(=O)C4(C)CC4)C[C@H]3/C=C\CCCCC[C@H](NC(=O)OCC3CC3)C(=O)N2C1 [Example 224, cyclopropylmethyl [(2R,6S,12Z,13aS,14aR,16aS)-8′,9′-difluoro-5′-methyl-14a-{[(1-methylcyclopropyl)sulfonyl]carbamoyl}-5,16-dioxo-1,1′,2′,5,6,7,8,9,10,11,13a,14,14a,15,16,16a-hexadecahydrospiro[cyclopropa[e]pyrrolo[1,2-a][1,4]diazacyclopentadecine-2,3′-pyrano[2,3-c]quinolin]-6-yl]carbamate] | 6.73 nM | 0.019 nM | – |
| CC1(S(=O)(=O)NC(=O)[C@@]23C[C@H]2/C=C\CCCCC[C@H](NC(=O)OC2CCCC2)C(=O)N2C[C@@]4(CCc5c(c(C6CC6)nc6c(F)cccc56)O4)C[C@H]2C(=O)N3)CC1 [Example 150, cyclopentyl [(2R,6S,12Z,13aS,14aR,16aS)-5′-cyclopropyl-7′-fluoro-14a-{[(1-methylcyclopropyl)sulfonyl]carbamoyl}-5,16-dioxo-1,1′,2′,5,6,7,8,9,10,11,13a,14,14a,15,16,16a-hexadecahydrospiro[cyclopropa[e]pyrrolo[1,2-a][1,4]diazacyclopentadecine-2,3′-pyrano[2,3-c]quinolin]-6-yl]carbamate] | 0.195 nM | 0.013 nM | – |
